This data set in a line: Solubility of fluvastatin sodium in solvents. It counts as physicochemical. The settings on record: in water, alcohols and acetone. The text has this:
In one aspect, the solvent-based process uses a solvent, such as water, non-organic solvents, and organic solvents, to dissolve and intimately disperse or dissolve the drug and the one or more pharmaceutical acceptable polymers. The solvent is later removed by evaporation or other ways while the drug/polymer solid dispersion is collected into a solid dosage form. The use of organic solvents may generate hazardous and toxic wastes to the environment. If possible, water is used for water soluble drugs to prepare a dispersion. Other suitable solvents may be, for example, alcohols and acetone for the use of water-insoluble polymers.

Each structure is given as a SMILES string.

Turning to `CC(C)n1c(/C=C/C(O)CC(O)CC(=O)O)c(-c2ccc(F)cc2)c2ccccc21` (stereo not drawn) [fluvastatin sodium, [R*,S*-(E)]=(±)-7-[3-(4-fluorophenyl)-1-(1-methylethyl)-1Hindol-2-yl]-3,5-dihydroxy-6-heptenoic acid], the Solubility entry is recorded as “soluble”.

Source of the values: US20110052688A1, “SOLID DISPERSION COMPOSITION” (priority 2006, published 2011).
